Results: PMC5913971, “A Novel Piperazine-Based Drug Lead for Cryptosporidiosis from the Medicines for Malaria Venture Open-Access Malaria Box” (Antimicrobial Agents and Chemotherapy, 2018)
In brackets after ≈: the same amount, converted by molar mass.

What was measured:
hERG = test system: hERG; set-up: method as in PMID 27467575; settings: at 11 μM; cited from earlier work
C. parvum = experiment: Parasite persistence (time-kill) assay in HCT-8 cells; assay type: cell-based, Cryptosporidium parvum
Description: Excysted C. parvum oocysts were added to >90% confluent HCT-8 cells in 384-well plates. […] At ∼24 h (i.e., the time of compound addition) and at various time intervals thereafter, parasites were washed, fixed, permeabilized, stained, and imaged as for the C. parvum growth assay. For the extended-compound-exposure experiments, the medium and compound were replaced every 3 days. A separate 384-well plate was used for each time interval. Parasite numbers were normalized to host cell nucleus numbers and are expressed as the percentage of parasites per host cell nucleus. In order to fit parasite decay curves, the effect of drugs was isolated from expected changes in parasite numbers over time by expressing the number of parasites as the percentage of the number of parasites with the control, dimethyl sulfoxide (DMSO), for each time point. Exponential decay curves were fit using GraphPad Prism software, version 6.01, and curve validity was assessed using the replicates test.

[1] = set-up: method as in PMID 27467575; settings: pH 7.4; cited from earlier work
C. hominis TU502 = experiment: Cryptosporidium hominis growth inhibition assay (1,536-well); assay type: cell-based; settings: HCT-8 cells, read-out: EC50 against C. hominis (isolate TU502)
Description: Cryptosporidium hominis growth inhibition assays were performed at the California Institute for Biomedical Research (Calibr), San Diego, CA, using a slightly modified immunofluorescence assay to enable automated compound handling and the use of 1,536-well microtiter plates ([19]). The HCT-8 culture medium was replaced with RPMI 1640 medium supplemented with 2% heat-inactivated horse serum, 100 U/ml penicillin, and […] streptomycin 24 h prior to infection with either C. hominis or the C. parvum Iowa isolate, used as a reference. […] Imaging was performed using a CellInsight CX5 High Content screening platform (Thermo Scientific) with a 10× objective and acquisition of one microscopic field per well. Images were processed using HCS Studio Scan software, and the selected-object count (HCT-8 cells) and spot count (C. hominis) were analyzed in Genedata Screener (version 13.0; Standard). Dose-response curves and EC values were calculated using the Smart Fit function of Genedata Analyzer.

[2] = set-up: method as in PMID 27467575; settings: mouse; cited from earlier work
[3] = test system: cytochrome P450 (CYP) isoforms (1A2, 2C9, 2C19, 2D6, 3A4-M, and 3A4-T); set-up: method as in PMID 27467575; settings: at 10 μM; cited from earlier work
zebrafish = test system: zebrafish; set-up: method as in PMID 27467575; settings: cited from earlier work
C. parvum Iowa isolate = experiment: IFN-γ knockout mouse model of acute cryptosporidiosis; assay type: in vivo, C57BL/6 IFN-γ−/− mice; settings: 30 mg/kg twice daily on days 4, 5, 6 postinfection
Description: All interferon gamma (IFN-γ) knockout mouse studies were performed in compliance with animal care guidelines and were approved by the Explora BioLabs (San Diego, CA) Institutional Animal Care and Use Committee. Four-week-old female C57BL/6 IFN-γ^−/− mice with normal flora were purchased from The Jackson Laboratory and were acclimated for 3 days prior to infection by oral gavage with 10^6 C. parvum Iowa isolate oocysts (Sterling Parasitology Laboratory, University of Arizona) suspended in sterile distilled water. At various times postinfection, mice were treated with the compound vehicle alone, clofazimine (used as a positive control), or MMV665917. As described previously, fecal parasite shedding was quantified at various times postinfection by isolating oocysts using a sucrose gradient centrifugation method ([39]), followed by staining for immunofluorescence microscopy using a fluorescein isothiocyanate-conjugated mouse anti-Cryptosporidium antibody (0.25 μg per sample) and analysis with a Guava easyCyte flow cytometer and CytoSoft data acquisition and analysis software (version 5.3; Guava Technologies, Inc.). Oocyst counts per milliliter of sample were exported to Excel (Microsoft Corp.) and were normalized to counts per milligram of feces. Final data analysis and graphing were carried out using GraphPad Prism software (version 6.01).

[4] = set-up: method as in PMID 27467575; settings: single oral dose of 55 mg/kg; cited from earlier work

O=C(Nc1ccc(Cl)cc1)N1CCN(c2ccc3nncn3n2)CC1 [MMV665917, Clc1ccc(NC(=O)N2CCN(CC2)c3ccc4nncn4n3)cc1]
hERG inhibition (hERG): 58%
concentration giving maximal rate of parasite elimination (C. parvum): 3 × EC90
parasiticidal or parasitistatic for C. parvum (C. parvum): parasiticidal
decay rate constant (r) (C. parvum; 3× EC90, one-phase exponential decay): 0.05346
decay rate constant (r) (C. parvum; 12× EC90, one-phase exponential decay): 0.05864
percentage of host cells infected, extended treatment (C. parvum; day 13 of treatment, 12 × EC90, medium and drug replaced every 3 days): ~0.1%
kinetic solubility [1]: 18 µM (≈ 6.44 µg/mL)
EC50 (C. hominis TU502): 4.05 µM
plasma protein binding [2]: 83.3%
inhibition of six CYP isoforms [3]: low inhibition
toxicity to zebrafish (zebrafish): not toxic
efficacy in IFN-γ KO mouse model of acute infection (C. parvum Iowa isolate): highly efficacious
plasma MMV665917 levels over time [4]: continued to increase for 9 h
